Test system: sperm acrosome
Assay: Sperm acrosome and membrane integrity by FITC-lectin staining, confocal, SEM and TEM (Example 4)
Type: cell-based, human
Conditions: for sperm head topography by scanning electron microscopy: 100 μM WHI compounds or 10 μM Cal A23187, 3 hours; for acrosome status by confocal microscopy (FITC-lectin) / acrosome-intact sperm: 100 μM; for acrosome status by confocal microscopy (FITC-lectin) / sperm head membranes by transmission electron microscopy / acrosome-intact sperm: 3 hours; for acrosome-intact sperm: method counts percentages of sperm with intact acrosome
Experimental: The percentages of sperm with an intact acrosome were evaluated by fluorescence microscopy (Olympus BX-60) following fixation and ethanol permeabilization of the sperm pellets and subsequent staining with fluorescein (FITC)-conjugated Pisum sativum lectin (Sigma). In positive control sperm, the acrosome reaction was induced by incubating (3 hours at 37° C.) the sperm suspension with 10 μm calcium ionophore (Cal) A23187 (Sigma). […] The percentage of sperm positive for PI were determined by flow cytometry using a FACS Vantage flow cytometer (Becton Dickinson and Co., Mountain View, Calif.). The sperm in the swim-up fractions were identified by their characteristic forward and 90° angle light scattering properties [O. J. D'Cruz and G. G. Haas, Jr. Fertil. Steril. 58, 633 (1992)]. All analyses were done using the 488-nm excitation from an krypton/argon laser with a 635-nm band pass filter for PI emission. The percentage of sperm positive for PI staining were determined using cutoff signals for membrane-intact motile sperm.
Ethanol permeabilized and air-dried sperm smears were stained sequentially with the three fluorescent markers, FITC-Pisum sativum, TOTO-3 iodide, and Nile red, each marking a different target (acrosome, nucleus, and plasma membrane of permeabilized sperm respectively). Samples were examined under a BioRad MRC-1024 Laser Scanning Confocal Microscope (BioRad Laboratories, Hercules, Calif.) equipped with a krypton/argon mixed gas laser (excitation lines 488, 568, and 647 nm) and mounted on a Nikon Eclipse E800 series upright microscope. The fluorescence emission of fluorescein, TOTO-3 iodide, and Nile red from the acrosomal region, nucleus, and the plasma membrane of sperm after ethanol permeabilization were simultaneously detected using the 598/40 nm, 522 DF32, and 680 DF32 emission/filter respectively. Confocal images were obtained using a Nikon 60× (NA 1.35) objective lens and Kalman collection filter. Digitized images were processed with the Adobe Photoshop software (Adobe Systems, Mountain View, Calif.). Final images were printed using a Fujix Pictography 3000 (Fuji Photo Film Co., Tokyo, Japan) color printer.
High-resolution low-voltage scanning electron microscopy was utilized for topographical imaging of different membrane domains over the sperm head as described [M. H. Stoffel et al. Molecular. Reprod. Develop. 34, 175 (1993); S. L. Erlandsen et al. Scanning 11, 169 (1989)]. […] Washed sperm suspensions were placed on 0.1% poly-L-lysine-coated glass chips and allowed to adhere to the glass over a 60 minute incubation period on ice. The supernatants were decanted, and adherent cells were fixed in 1% paraformaldehyde and 1% glutaraldehyde in 0.14 M sodium cacodylate buffer for 3 hours. To preserve plasma membrane integrity, sperm were post-fixed in 1% osmium tetroxide (OSO4) containing 0.1% ruthenium red in 0.14 M cacodylate buffer for 1 hour at 4° C. All samples were dehydrated through an ascending ethanol series, critical point dried, and coated with approximately 2 nm of platinum using ion beam sputtering with argon (4 mA at 10 ke V; Ion Tech Ltd., Middlesex, England). All samples were examined in a Hitachi S-900 SEM at an accelerating voltage of 2 keV. Sperm were observed under low magnification (×2,000-5000) and representative sperm were photographed under intermediate magnification (×18,000-25,000). In each specimen evaluated, at least 200 sperm were scanned for the intactness of sperm acrosomal region.
For transmission electron microscopy, treated sperm were fixed in 3% glutaraldehyde in 5% sucrose in 0.2 M cacodylate buffer for 3 hours at room temperature. The samples were post-fixed in 1% OSO4, 5% sucrose and 0.1% ruthenium red for 2 hours at 4° C. The samples were dehydrated in ascending ethanol series, and embedded in Spurr's epoxy. Thin sections (90 nm) were prepared on a Reichert-Jung Ultracut E and stained with uranyl acetate and lead citrate.

5-bromo-6-methoxy-5,6-dihydro-3 ′-azidothymidine-5 ′-(p-methoxyphenyl) methoxyalaninyl phosphate [WHI-05]
sperm head topography by scanning electron microscopy: intact acrosomes
acrosome status by confocal microscopy (FITC-lectin): uniform, bright green fluorescence
sperm head membranes by transmission electron microscopy: intactness of the plasma membrane, outer, and inner acrosomal membranes
acrosome-intact sperm: 97.0±2.0

CCCCCCCCCc1ccc(OCCOCCOCCOCCOCCOCCOCCOCCOCCO)cc1 [Compound N-9, nonoxynol-9, reference compound]
acrosome status by confocal microscopy (FITC-lectin): only acrosome-reacted sperm

COC(=O)C(C)NP(=O)(OCC1OC(N2C(=O)NC(=O)C(C)(Br)C2OC)CC1N=[N+]=[N-])Oc1ccc(Br)cc1 (stereo not drawn) [WHI-07, 5-Bromo-6-methoxy-5,6-dihydro-3′-azidothymidine-5′-(p-Bromophenyl Methoxyalaninyl Phosphate)]
sperm head topography by scanning electron microscopy: mild acrosomal membrane ruffling
acrosome status by confocal microscopy (FITC-lectin): uniform, bright green fluorescence
sperm head membranes by transmission electron microscopy: intactness of the plasma membrane, outer, and inner acrosomal membranes
acrosome-intact sperm: 93.0±5.6

From patent publication US6482805B2 (Parker Hughes Institute, priority 1998, dated 2002)
